This is an account of results in PMC12818745 (ACS Chemical Neuroscience, 2025).

The structures appear in SMILES notation.

In one experiment the target is T1, Tau protein aggregation (Homo sapiens, UniProt P10636).
T1 construct: For the cloning and overexpression of full-length tau protein; expressed in transfected cells; host or cells: E. coli BL21 (DE3) carrying pTARA and pRKT42
Description: Thioflavin S assay of tau protein aggregation in E. coli cells overexpressing tau. In kind it is cell-based, Escherichia coli. The conditions noted are these: read-out: Tau inhibition %. As to the method:
The antiaggregating profiles of both series A and B were evaluated using a fluorescence Thioflavin S (ThS) assay in cellulo, which monitors ThS fluorescence in the presence of β-sheet-rich structures, such as Aβ and tau protein aggregates. This method, based on recombinant Escherichia coli (E. coli) bacteria overexpressing insoluble aggregates, offers a simple and cost-effective approach to model aggregation processes in mammalian systems and has been validated for use in drug discovery studies. , Compounds were tested at a screening concentration of 50 μM for their ability to inhibit Aβ42 aggregation. The results, summarized in Table , reveal distinct antiaggregating profiles between series A and B, which are once again influenced by their structural differences.
This strategic extension aimed to validate the chromeno[3,4-b]-xanthone scaffold for related aggregation targets, considering the structural and pathological similarities between Aβ and tau aggregation processes. […]. […] Nevertheless, it is important to interpret the results cautiously, as the inability of certain compounds to cross bacterial membranes, may have underestimated their true inhibitory activity in the assay.
For the cloning and overexpression of full-length tau protein, E. coli BL21 (DE3) competent cells were transformed first with the pTARA vector containing the RNA polymerase gene of phage T7 (T7RP), controlled by the PBAD promoter. Subsequently, E. coli BL21(DE3) competent cells containing pTARA were transformed with the pRKT42 vector encoding four repeats of tau protein in two inserts. Similar to the procedure for Aβ42, overnight cultures were prepared by inoculating colonies of BL21 (DE3) cells bearing the plasmids in M9 medium supplemented with 0.5% glucose, 50 μg mL^–1 ampicillin, and 12.5 μg mL^–1 chloramphenicol at 37 °C. Upon induction, a 1:500 dilution of the overnight culture was added to fresh M9 minimal medium containing 0.5% glucose, 50 μg mL^–1 ampicillin, 12.5 μg mL^–1 chloramphenicol, and 25 μM ThS. The subsequent steps mirrored those for the Aβ assay, including the addition of the compound to be tested dissolved in DMSO and 10 μL of 25% arabinose or, alternatively, 10 μL of water for the noninduced controls, with a final compound concentration of […]. Negative controls for tau overexpression utilized free DMSO.
ThS (T1892) and all other chemical reagents were purchased from Sigma (St. Louis, MO). Stock solutions of ThS (250 μM) were prepared using doubly distilled water purified via a Milli-Q system (Millipore). For the fluorescence assay, ThS spectra were recorded utilizing an AmincoBowman series 2 luminescence spectrophotometer (Aminco-Bowman AB2, SLM Aminco, Rochester, NY) within the range of 460 to 600 nm at a temperature of 25 °C. The excitation wavelength employed was 445 nm, with slit widths set at 4 nm. The emission at 485 nm, corresponding to the ThS peak observed in the presence of amyloids, was recorded. To standardize ThS fluorescence relative to bacterial concentration in both in vitro and cell-based assays, the OD600 was determined using a Shimadzu UV-2401 PC UV–vis spectrophotometer. Fluorescence normalization was executed by setting the ThS fluorescence of bacterial cells expressing the peptide or protein in the absence of the drug as 100%, while that of bacterial cells not expressing the peptide or protein was established as 0%.

Experiment [1] has as its system Aβ42 aggregates in SH-SY5Y (SHwt) cells. Description: Confocal microscopy (ThT) of Aβ42 aggregates in SH-SY5Y cells expressing APP695. The settings on record: 25 μM compound with Aβ42 10 μM, 48 h.
Description: A stock solution of Aβ42 (GenScript) was prepared in DMSO to a concentration of 2000 μM. SH-SY5Y cells stably expressing wild-type APP695 (SHwt) were used. The cells were cultured in Dulbecco’s Modified Eagle Medium (DMEM, Gibco), supplemented with 10% of Fetal Bovine Serum (FBS, Sigma-Aldrich), and 2% of Pen-Strep-Glut (Gibco). […] 2.0 × 10^4 SH-WT cells were plated in 24-well plates and incubated for 24 h, in 12 ømm glass coverslips. […] Cells incubated with Aβ42 and 1% DMSO were used as the positive control. After this period, the medium was changed to fresh DMEM medium without FBS, and the cells were incubated for another 24 h. After the incubation period, cells were washed with PBS, fixed in 4% formaldehyde for 30 min, permeabilized with 0.2% Triton X-100 in PBS for 10 min and blocked with 1% BSA for 10 min. […] Cells were washed three times between each step. Coverslips with cells were mounted with CitiFluor MWL4–88 (Electron Microscopy Sciences).

T1 sequence (P10636 other isoform, or with tags, fused parts or gaps): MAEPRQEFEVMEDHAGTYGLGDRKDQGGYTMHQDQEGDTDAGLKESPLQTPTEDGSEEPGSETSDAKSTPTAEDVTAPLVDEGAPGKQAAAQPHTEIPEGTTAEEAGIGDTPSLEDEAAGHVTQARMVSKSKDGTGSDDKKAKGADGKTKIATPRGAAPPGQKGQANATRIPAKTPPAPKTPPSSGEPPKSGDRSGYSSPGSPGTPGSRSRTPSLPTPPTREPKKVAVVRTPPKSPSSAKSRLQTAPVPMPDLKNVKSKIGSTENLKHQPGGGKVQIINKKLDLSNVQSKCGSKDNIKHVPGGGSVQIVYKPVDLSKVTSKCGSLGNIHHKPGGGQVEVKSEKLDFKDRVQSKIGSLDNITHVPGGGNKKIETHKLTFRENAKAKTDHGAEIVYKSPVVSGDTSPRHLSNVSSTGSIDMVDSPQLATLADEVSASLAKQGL

In the case of `COc1ccc2c(=O)c3cc4c(cc3oc2c1)-c1cc(Cl)ccc1OC4` [Compound 11r, 2-Chloro-11-methoxy-6H,8H-chromeno[3,4-b]xanthen-8-one], the inhibition (commonly how much of the control response was suppressed) at 50 µM at Tau protein aggregation was 61.3 ± 5.9%. Further, the “Reduction in intracellular Aβ42 aggregates (ThT fluorescence)” value in experiment [1] is listed as “approximately 70%”.
